For this experiment, the target named is T1, FAAH (Rattus norvegicus, UniProt P97612).
T1 construct: Preparation of Rat Brain Membranes Preparations (FAAH Enzyme Solution); from tissue; host or cells: rat cerebrum (brain membrane preparation)
T1 sequence (P97612 1-579): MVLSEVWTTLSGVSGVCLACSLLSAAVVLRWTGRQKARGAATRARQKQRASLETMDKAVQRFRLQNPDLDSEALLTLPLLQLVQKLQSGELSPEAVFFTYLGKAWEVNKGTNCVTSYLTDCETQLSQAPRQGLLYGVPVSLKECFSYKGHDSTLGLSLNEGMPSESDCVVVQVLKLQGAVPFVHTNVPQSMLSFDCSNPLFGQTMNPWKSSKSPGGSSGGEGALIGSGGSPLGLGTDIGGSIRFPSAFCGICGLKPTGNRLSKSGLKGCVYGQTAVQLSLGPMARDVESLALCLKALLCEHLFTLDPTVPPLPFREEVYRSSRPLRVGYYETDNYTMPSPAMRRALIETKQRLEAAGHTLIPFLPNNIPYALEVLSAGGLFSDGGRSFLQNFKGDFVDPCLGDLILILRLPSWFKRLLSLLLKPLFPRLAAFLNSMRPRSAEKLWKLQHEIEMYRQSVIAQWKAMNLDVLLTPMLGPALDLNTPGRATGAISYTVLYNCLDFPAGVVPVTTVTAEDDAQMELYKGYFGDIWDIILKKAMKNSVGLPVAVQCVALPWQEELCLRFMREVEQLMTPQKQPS
The experiment can be described thus: Determination of FAAH inhibitory activity in rat (rat brain membrane preparations, [3H]-anandamide hydrolysis). It counts as biochemical. The following applies: rat brain membrane preparations; for inhibition at 0.1 µM: 100 nM test substance, read-out: FAAH Inhibition, Inhibition Rate at 100 nM; for IC50: test substance 0.1 nM to 1 μM, read-out: FAAH Inhibition IC50. Summed up:
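Rat cerebrum membranes (100 μg/mL protein) preincubated 10 min at 37 °C with compound (1% DMSO) in pH 7.6 Tris buffer with 1.5% BSA. Substrate 2 nM [3H]-anandamide plus 2 μM anandamide added for 10 min at 37 °C. [3H]-ethanolamine in the aqueous phase after chloroform/methanol extraction was scintillation counted; IC50 over 0.1 nM–1 μM.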

Molecules are shown by their SMILES.

The inhibition is the change of the read-out against control, counted positive when it falls. Broadly, the IC50 is the point on the concentration scale where inhibition reaches its midpoint. `Cn1c(=O)n(C(=O)N2CCCC2)c2cnc(Cc3cc(F)ccc3F)nc21` [Example 267, 2-(2,5-Difluorobenzyl)-9-methyl-7-(pyrrolidin-1-ylcarbonyl)-7,9-dihydro-8H-purine-8-one]: the inhibition at 0.1 µM is 99% and the half-inhibitory concentration (IC50) stood at 23 nM.
For `Cn1c(=O)n(C(=O)N2CCCC2)c2cnc(Cc3c(F)cccc3F)nc21` [Example 268, 2-(2,6-Difluorobenzyl)-9-methyl-7-(pyrrolidin-1-ylcarbonyl)-7,9-dihydro-8H-purine-8-one] the same measures were 93% and 48 nM.
The corresponding values for `Cn1c(=O)n(C(=O)N2CCCC2)c2cnc(Cc3cc(F)cc(F)c3)nc21` [Example 270, 2-(3,5-Difluorobenzyl)-9-methyl-7-(pyrrolidin-1-ylcarbonyl)-7,9-dihydro-8H-purine-8-one] are 96% and 32 nM.
The corresponding values for `CC(c1ccccc1)c1ncc2c(n1)n(C)c(=O)n2C(=O)N1CCCC1` (stereo not shown) [Example 273] are 89% and 47 nM.
With `CCCCc1ncc2c(n1)n(C)c(=O)n2C(=O)N1CCCC1` [Example 274, 2-Butyl-9-methyl-7-(pyrrolidin-1-ylcarbonyl)-7,9-dihydro-8H-purine-8-one], the inhibition at 0.1 µM amounted to 98% and the IC50 came to 10 nM.
The corresponding values for `CC(C)c1ncc2c(n1)n(C)c(=O)n2C(=O)N1CCCC1` [Example 275] are 73% and 64 nM.
For `CCOC(=O)CCc1ncc2c(n1)n(C)c(=O)n2C(=O)N1CCCC1` [Example 276] the same measures were 63% and 75 nM.
The corresponding values for `CCN(C)C(=O)n1c(=O)n(C)c2nc(Cc3cccc(OC)c3)ncc21` [Example 277, N-Ethyl-2-(3-methoxybenzyl)-N,9-dimethyl-8-oxo-8,9-dihydro-7H-purine-7-carboxamide] are 96% and 7 nM.
As for `CCN(C)C(=O)n1c(=O)n(C)c2nc(Cc3ccccc3)ncc21` [Example 278, 2-Benzyl-N-ethyl-N,9-dimethyl-8-oxo-8,9-dihydro-7H-purine-7-carboxamide], the inhibition at 0.1 µM was 99% and the half-maximal inhibitory concentration (IC50) turned out to be 8 nM.
For `CCN(C)C(=O)n1c(=O)n(C)c2nc(Cc3ccc(F)cc3)ncc21` [Example 279, N-Ethyl-2-(4-fluorobenzyl)-N,9-dimethyl-8-oxo-8,9-dihydro-7H-purine-7-carboxamide] the same measures were 98% and 3 nM.
The corresponding values for `CCN(C)C(=O)n1c(=O)n(C)c2nc(Cc3ccc(OC)cc3)ncc21` [Example 280, N-Ethyl-2-(4-methoxybenzyl)-N,9-dimethyl-8-oxo-8,9-dihydro-7H-purine-7-carboxamide] are 105% and 11 nM.
The corresponding values for `CCN(C)C(=O)n1c(=O)n(C)c2nc(Cc3ccc(C)cc3)ncc21` [Example 281, N-Ethyl-N,9-dimethyl-2-(4-methylbenzyl)-8-oxo-8,9-dihydro-7H-purine-7-carboxamide] are 98% and 14 nM.
`CCN(C)C(=O)n1c(=O)n(C)c2nc(Cc3cccc(C)c3)ncc21` [Example 282, N-Ethyl-N,9-dimethyl-2-(3-methylbenzyl)-8-oxo-8,9-dihydro-7H-purine-7-carboxamide]: the inhibition at 0.1 µM is 97% and the 50% inhibitory concentration (IC50) is 10 nM.
The corresponding values for `CCN(C)C(=O)n1c(=O)n(C)c2nc(Cc3cccc(F)c3)ncc21` [Example 284, N-Ethyl-2-(3-fluorobenzyl)-N,9-dimethyl-8-oxo-8,9-dihydro-7H-purine-7-carboxamide] are 100% and 3 nM.
The corresponding values for `Cn1c(=O)n(C(=O)N2CCCC2)c2nc(Cc3cccc(F)c3)ncc21` [Example 286, 2-(3-Fluorobenzyl)-7-methyl-9-(pyrrolidin-1-ylcarbonyl)-7,9-dihydro-8H-purine-8-one] are 86% and 59 nM.
The corresponding values for `COc1ccc(Cc2ncc3c(n2)n(C(=O)N2CCCC2)c(=O)n3C)cc1` [Example 287, 2-(4-Methoxybenzyl)-7-methyl-9-(pyrrolidin-1-ylcarbonyl)-7,9-dihydro-8H-purine-8-one] are 96% and 29 nM.
Regarding `COc1cccc(Cc2ncc3c(n2)n(C(=O)N2CCCC2)c(=O)n3C)c1` [Example 288, 2-(3-Methoxybenzyl)-7-methyl-9-(pyrrolidin-1-ylcarbonyl)-7,9-dihydro-8H-purine-8-one], the inhibition at 0.1 µM was 86% and the half-maximal inhibitory concentration (IC50) is 47 nM.
The corresponding values for `Cc1ccc(Cc2ncc3c(n2)n(C(=O)N2CCCC2)c(=O)n3C)cc1` [Example 289, 7-Methyl-2-(4-methylbenzyl)-9-(pyrrolidin-1-ylcarbonyl)-7,9-dihydro-8H-purine-8-one] are 96% and 15 nM.
For `Cn1c(=O)n(C(=O)N2CCCC2)c2nc(CCc3ccccc3)ncc21` [Example 290, 7-Methyl-2-(2-phenylethyl)-9-(pyrrolidin-1-ylcarbonyl)-7,9-dihydro-8H-purine-8-one] the same measures were 93% and 47 nM.
For `Cn1c(=O)n(C(=O)N2CCCC2)c2nc(Cc3ccc(F)c(F)c3)ncc21` [Example 293, 2-(3,4-Difluorobenzyl)-7-methyl-9-(pyrrolidin-1-ylcarbonyl)-7,9-dihydro-8H-purine-8-one] the same measures were 97% and 24 nM.
`Cc1cccc(Cc2ncc3c(n2)n(C(=O)N2CCCC2)c(=O)n3C)c1` [Example 294, 7-Methyl-2-(3-methylbenzyl)-9-(pyrrolidin-1-ylcarbonyl)-7,9-dihydro-8H-purine-8-one]: the inhibition at 0.1 µM amounted to 93% and the IC50 worked out at 37 nM.
The corresponding values for `Cn1c(=O)n(C(=O)N2CCCC2)c2nc(Cc3ccc(F)cc3)ncc21` [Example 295, 2-(4-Fluorobenzyl)-7-methyl-9-(pyrrolidin-1-ylcarbonyl)-7,9-dihydro-8H-purine-8-one] are 91% and 43 nM.
The corresponding values for `Cn1c(=O)n(C(=O)N2CCCC2)c2nc(Cc3ccc(F)cc3F)ncc21` [Example 296, 2-(2,4-Difluorobenzyl)-7-methyl-9-(pyrrolidin-1-ylcarbonyl)-7,9-dihydro-8H-purine-8-one] are 92% and 45 nM.
The corresponding values for `Cn1c(=O)n(C(=O)N2CCCC2)c2nc(Cc3cc(F)ccc3F)ncc21` [Example 297, 2-(2,5-Difluorobenzyl)-7-methyl-9-(pyrrolidin-1-ylcarbonyl)-7,9-dihydro-8H-purine-8-one] are 89% and 47 nM.
With `Cn1c(=O)n(C(=O)N2CCCC2)c2nc(Cc3c(F)cccc3F)ncc21` [Example 298, 2-(2,6-Difluorobenzyl)-7-methyl-9-(pyrrolidin-1-ylcarbonyl)-7,9-dihydro-8H-purine-8-one], the inhibition at 0.1 µM turned out to be 98% and the concentration for half-maximal inhibition (IC50) came to 48 nM.
Turning to `Cn1c(=O)n(C(=O)N2CCCC2)c2nc(Cc3cc(F)cc(F)c3)ncc21` [Example 299, 2-(3,5-Difluorobenzyl)-7-methyl-9-(pyrrolidin-1-ylcarbonyl)-7,9-dihydro-8H-purine-8-one], the inhibition at 0.1 µM came out at 100% and the half-inhibitory concentration (IC50) stood at 37 nM.
The corresponding values for `Cn1c(=O)n(C(=O)N2CCCC2)c2nc(Cc3ccccc3F)ncc21` [Example 300, 2-(2-Fluorobenzyl)-7-methyl-9-(pyrrolidin-1-ylcarbonyl)-7,9-dihydro-8H-purine-8-one] are 88% and 40 nM.
The corresponding values for `O=C(N1CCCC1)n1c(=O)[nH]c2nc(-c3ccccc3)ncc21` [Example 301, 2-phenyl-7-(pyrrolidin-1-ylcarbonyl)-7,9-dihydro-8H-purine-8-one] are 90% and 23 nM.
The corresponding values for `O=C(N1CCCC1)n1c(=O)n(CCO)c2nc(-c3ccccc3)ncc21` [Example 302, 9-(2-hydroxyethyl)-2-phenyl-7-(pyrrolidin-1-ylcarbonyl)-7,9-dihydro-8H-purine-8-one] are 94% and 46 nM.
As to `CCn1c(=O)n(C(=O)N2CCCC2)c2cnc(-c3ccccc3)nc21` [Example 303], the inhibition at 0.1 µM was determined as 101% and the IC50 came to 7 nM.
The corresponding values for `CCCn1c(=O)n(C(=O)N2CCCC2)c2cnc(-c3ccccc3)nc21` [Example 304, 2-Phenyl-9-propyl-7-(pyrrolidin-1-ylcarbonyl)-7,9-dihydro-8H-purine-8-one] are 100% and 9 nM.
Regarding `CC(C)n1c(=O)n(C(=O)N2CCCC2)c2cnc(-c3ccccc3)nc21` [Example 305], the inhibition at 0.1 µM was determined as 99% and the IC50 turned out to be 12 nM.

The record behind these values is US8735406B2, “8-oxodihydropurine derivative” (Dainippon Sumitomo Pharma Co., Ltd., priority 2009, dated 2014).
